Like-named read-outs stand apart in the source and are kept apart here.
Key:
pancreatic lipase = biological target: T1, pancreatic lipase (Rattus norvegicus, UniProt P27657); test: In vitro pancreatic lipase screen ([14C]-triolein assay); assay type: biochemical; settings: read-out: Pancreatic Lipase Activity I50
T1 construct: stimulated to release pancreatic proteins by addition of 10^-5 M carbachol; from tissue; host or cells: pancreatic lobules of fasted Charles River female rats; released pancreatic juice, centrifuged
T1 sequence (P27657 17-465): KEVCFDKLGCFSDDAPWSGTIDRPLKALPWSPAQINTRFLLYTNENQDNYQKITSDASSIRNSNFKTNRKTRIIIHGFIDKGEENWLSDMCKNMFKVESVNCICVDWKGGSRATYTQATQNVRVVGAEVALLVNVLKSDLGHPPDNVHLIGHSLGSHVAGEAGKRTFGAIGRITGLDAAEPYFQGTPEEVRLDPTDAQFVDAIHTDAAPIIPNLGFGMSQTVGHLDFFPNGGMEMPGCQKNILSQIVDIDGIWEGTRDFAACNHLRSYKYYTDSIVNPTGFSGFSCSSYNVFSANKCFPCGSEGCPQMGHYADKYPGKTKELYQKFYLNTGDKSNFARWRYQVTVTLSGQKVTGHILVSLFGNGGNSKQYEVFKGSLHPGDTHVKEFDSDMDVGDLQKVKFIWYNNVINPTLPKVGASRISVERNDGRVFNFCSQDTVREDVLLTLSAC
Experimental: The method for assaying pacreatic lipase in vitro using [^14 C]-triolein was based on the method of Garfinkel and Schotz for lipoprotein lipase, [A. S. Garfinkel and M. C. Schotz (1972). […] Glycerol tri[1-^14 C]oleate (32 mM) was emulsified in 0.2 M Tris-HCl pH 8 containing 0.15 M NaCl, bovine serum albumin (15 mg/ml) and sodium taurocholate (1.4 mM) by sonication for three, one min intervals at 80 watts. Final assay volume was 1.0 ml. The reaction was initiated by the addition of enzyme and was allowed to proceed for 10 min. The reaction was linear for up to 20 min. The liberated free fatty acids were extracted into 0.1 M KOH and quantitated in a liquid scintillation counter using 2,5-bis-2-(5-tertbutylbenzoxazolyl)-tniophene (BBOT) scintillation fluid (Yorktown Research, South Hackensack, N.J.).
Ionophores were added to the above assay as solutions in either 90% ethanol or water, pH 8; 90% ethanol had no effect on the enzyme activity assayed by either method.

[1] = system: fatty acid synthesis in isolated hepatocytes; test: In vitro fatty acid synthesis in isolated hepatocytes; assay type: cell-based, Charles River female rat; settings: for activity at 1 µM / activity at 5 µM / activity at 10 µM / activity at 100 µM / activity at 250 µM / activity at 500 µM / activity at 1000 µM / activity at 2000 µM: Rattus norvegicus, Hepatocyte, 1 h, pH 7.4; for activity at 1 µM: 0.001 mM; for activity at 5 µM: 0.005 mM; for activity at 10 µM: 0.010 mM; for activity at 100 µM: 0.100 mM; for activity at 250 µM: 0.250 mM; for activity at 500 µM: 0.5 mM; for activity at 2000 µM: 2.000 mM
Experimental: Hepatocytes were prepared from meal-fed Charles River female rats as described previously, [A. C. Sullivan, J. Triscari, J. G. Hamilton and J. A. Ontko (1977). Hypolipidemic activity of (-)-hydroxycitrate, Lipids, 12: 1-9]. Briefly, rats were anesthetized with Nembutal, livers were perfused in situ and hepatocytes were isolated in Krebs-Henseleit bicarbonate buffer, pH 7.4. Incubations with isolated hepatocytes were performed in triplicate at 37° C. Each incubation flask contained in a total volume of 2.1 ml, 10.5 mg cells (dry weight), 1 ml of Krebs-Henseleit buffer, pH 7.4, radioactive substrate (1 μCi [U-^14 C]alanine, 1 mCi^3 H2 O and 1 μmole alanine) and 0.3% glucose. The appropriate concentration of inhibitor was prepared in dimethylsulfoxide and added to the incubation flask. Dimethylsulfoxide had no effect on fatty acid synthesis. ^3 H2 O was used to determine the total rate of fatty acid synthesis independently of carbon precursors of acetyl CoA. [^14 C]alanine was used as an acetyl CoA precursor. Rates of fatty acid synthesis were determined as described previously, [A. C. Sullivan, J. Triscari, J. G. Hamilton and J. A. Ontko (1977). Hypolipidemic activity of (-)-hydroxycitrate, Lipids, 12: 1-9]. Data are expressed as nmoles ^3 H2 O or [^14 C]alanine converted into fatty acids per mg dry weight cells in 60 minutes.

[2] = read-out: Fatty Acid Synthesis 3H2O
[3] = read-out: Fatty Acid Synthesis [14C]alanine
[4] = 1.0 mM, read-out: Fatty Acid Synthesis 3H2O
[5] = 1.0 mM, read-out: Fatty Acid Synthesis [14C]alanine

CO[C@H]1CC[C@H](O[C@@H]2C[C@@H]([C@@H](C)/C=C(\C)C(=O)[C@H](C)C[C@H](C)C(=O)O)O[C@@]3(CC[C@@](C)([C@H]4CC[C@@H](C)[C@@]5(O[C@@H]([C@H]6O[C@@](O)(CO)[C@H](C)C[C@@H]6C)C[C@@H]5C)O4)O3)[C@@H]2C)O[C@@H]1C [A-130A (Lenoremycin)]
IC50 (pancreatic lipase): 150 µM

CNc1ccc2oc(C[C@H]3O[C@@]4(CC[C@H]3C)O[C@H]([C@H](C)C(=O)c3ccc[nH]3)[C@H](C)C[C@H]4C)nc2c1C(=O)O [Calcimycin]
Fatty Acid Synthesis 3H2O ([1]; 1.0 mM): 48 % of control
Fatty Acid Synthesis [14C]alanine ([1]; 1.0 mM): 0 % of control

CC[C@@H](C(=O)[C@@H](C)[C@@H](O)[C@H](C)CCc1c(Cl)cc(C)c(O)c1C(=O)O)[C@H]1O[C@](CC)([C@H]2CC[C@](O)(CC)[C@H](C)O2)C[C@@H]1C [Chlorolasalocid]
IC50 (pancreatic lipase): 7000 µM

CCC(C(=O)O)C1CCC(C)C(C(C)C(O)C(C)C(=O)C(CC)C2OC3(C=CCC4(CCC(C)(C5CCC(O)(CC)C(C)O5)O4)O3)C(C)CC2C)O1 (stereo not drawn) [Deoxy-(0-8)-epi-17-salinomycin]
IC50 (pancreatic lipase): 600 µM

CC[C@@H](C(=O)[C@@H](C)[C@@H](O)[C@H](C)CCc1c([N+](=O)[O-])cc(C)c(O)c1[N+](=O)[O-])[C@H]1O[C@](CC)([C@H]2CC[C@](O)(CC)[C@H](C)O2)C[C@@H]1C [Dinitrodescarboxylasalocid,Sodium]
activity at 1 µM [1, 2]: 113%
activity at 1 µM [1, 3]: 102%
activity at 5 µM [1, 2]: 116%
activity at 5 µM [1, 3]: 117%
activity at 10 µM [1, 2]: 160%
activity at 10 µM [1, 3]: 169%
activity at 100 µM [1, 2]: 2%
activity at 100 µM [1, 3]: 0%
activity at 250 µM [1, 2]: 3%
activity at 250 µM [1, 3]: 0%
activity at 500 µM [1, 2]: 3%
activity at 500 µM [1, 3]: 0%
activity at 1000 µM [1, 4]: 4%
activity at 1000 µM [1, 5]: 0%
activity at 2000 µM [1, 2]: 7%
activity at 2000 µM [1, 3]: 0%

CC[C@@H](C(=O)[C@@H](C)[C@@H](O)[C@H](C)CCc1c(I)cc(C)c(O)c1C(=O)O)[C@H]1O[C@](CC)([C@H]2CC[C@](O)(CC)[C@H](C)O2)C[C@@H]1C [Iodolasalocid]
IC50 (pancreatic lipase): 260 µM

C[C@H](CCC(=O)O)C[C@H](C)C[C@H](C)C(=O)/C=C(\O)[C@H](C)C[C@H](C)C/C=C/[C@@H](C)[C@@H](O)[C@@H](C)[C@@H](O)C[C@@H]1CC[C@@](C)([C@H]2CC[C@@](C)([C@@H](C)O)O2)O1 [Ionomycin]
IC50 (pancreatic lipase): 960 µM

CCC(C(=O)C(C)C(O)C(C)CCc1ccc(C)c(O)c1C(=O)O)C1OC(CC)(C2CCC(CC)(C(C)O)O2)CC1C (centres unmarked) [Isolasalocid A]
IC50 (pancreatic lipase): 390 µM

CC[C@@H](C(=O)[C@@H](C)[C@@H](O)[C@H](C)CCc1ccc(C)c(OC(=O)c2ccc(Br)cc2)c1C(=O)O)[C@H]1O[C@](CC)([C@H]2CC[C@](O)(CC)[C@H](C)O2)C[C@@H]1C [Lasalocid 4-bromo benzoate]
IC50 (pancreatic lipase): 130 µM

CC[C@@H](C(=O)[C@@H](C)[C@@H](O)[C@H](C)CCc1ccc(C)c(OC(C)=O)c1C(=O)O)[C@H]1O[C@](CC)([C@H]2CC[C@](O)(CC)[C@H](C)O2)C[C@@H]1C [Lasalocid Acetate]
IC50 (pancreatic lipase): 120 µM

CCCCCCC(=O)Oc1c(C)ccc(CC[C@@H](C)[C@H](O)[C@H](C)C(=O)[C@H](CC)[C@H]2O[C@](CC)([C@H]3CC[C@](O)(CC)[C@H](C)O3)C[C@@H]2C)c1C(=O)O [Lasalocid Heptanoate]
IC50 (pancreatic lipase): 220 µM

CCCCCC(=O)Oc1c(C)ccc(CC[C@@H](C)[C@H](O)[C@H](C)C(=O)[C@H](CC)[C@H]2O[C@](CC)([C@H]3CC[C@](O)(CC)[C@H](C)O3)C[C@@H]2C)c1C(=O)O [Lasalocid Hexanoate]
IC50 (pancreatic lipase): 200 µM

CCCCCCCC(=O)Oc1c(C)ccc(CC[C@@H](C)[C@H](O)[C@H](C)C(=O)[C@H](CC)[C@H]2O[C@](CC)([C@H]3CC[C@](O)(CC)[C@H](C)O3)C[C@@H]2C)c1C(=O)O [Lasalocid Octanoate]
IC50 (pancreatic lipase): 110 µM

CCCCCCCCCCCCCCCCCC(=O)Oc1c(C)ccc(CC[C@@H](C)[C@H](O)[C@H](C)C(=O)[C@H](CC)[C@H]2O[C@](CC)([C@H]3CC[C@](O)(CC)[C@H](C)O3)C[C@@H]2C)c1C(=O)O [Lasalocid Stearate]
IC50 (pancreatic lipase): 110 µM

CCC(C(=NOC)C(C)C(O)C(C)CCc1ccc(C)c(O)c1C(=O)O)C1OC(CC)(C2CCC(O)(CC)C(C)O2)CC1C (centres unmarked) [Lasalocid methoxime]
IC50 (pancreatic lipase): 200 µM

CC[C@@H](C(=O)[C@@H](C)[C@@H](O)[C@H](C)CCc1ccc(C)c(O)c1C(=O)O)[C@H]1O[C@](CC)([C@H]2CC[C@](O)(CC)[C@H](C)O2)C[C@@H]1C [Lasalocid,Sodium]
activity at 1 µM [1, 2]: 97%
activity at 1 µM [1, 3]: 88%
activity at 5 µM [1, 2]: 74%
activity at 5 µM [1, 3]: 66%
activity at 10 µM [1, 2]: 61%
activity at 10 µM [1, 3]: 66%
activity at 100 µM [1, 2]: 4%
activity at 100 µM [1, 3]: 0%
activity at 250 µM [1, 2]: 6%
activity at 250 µM [1, 3]: 1%
activity at 500 µM [1, 2]: 7%
activity at 500 µM [1, 3]: 3%
activity at 1000 µM [1, 4]: 11%
activity at 1000 µM [1, 5]: 0%

CC[C@@H](C(=O)[C@@H](C)[C@@H](O)[C@H](C)CCc1ccc(C)c(O)c1C(=O)O)[C@H]1O[C@](CC)([C@H]2CC[C@](O)(CC)[C@H](C)O2)C[C@@H]1C [Lasalocid]
IC50 (pancreatic lipase): 100 µM

CO[C@@H]1C[C@@H](C[C@H]2CC[C@H](C)[C@H]([C@@H](C)C(=O)O)O2)O[C@]2(O[C@](C)([C@H]3CC[C@@](C)([C@@H]4O[C@@H]([C@H]5O[C@@](O)(CO)[C@H](C)C[C@@H]5C)C[C@@H]4C)O3)C[C@H]2C)[C@@H]1C [Nigericin]
IC50 (pancreatic lipase): 2500 µM

CC[C@@H](C(=O)[C@@H](C)[C@@H](O)[C@H](C)CCc1c([N+](=O)[O-])cc(C)c(O)c1C(=O)O)[C@H]1O[C@](CC)([C@H]2CC[C@](O)(CC)[C@H](C)O2)C[C@@H]1C [Nitrolasalocid]
IC50 (pancreatic lipase): 1320 µM

CC/C(=C\C=C\[C@@H]1C=C[C@@H]2[C@@H](CC)CC[C@H]2[C@@H]1C(=O)c1ccc[nH]1)[C@@H]1O[C@@H]([C@@H](C)C(=O)O)CC[C@@H]1C [X-14547A]
IC50 (pancreatic lipase): 700 µM

Lysocellin
IC50 (pancreatic lipase): 800 µM
